Experiments:
fibroblasts = experiment: Collagen synthesis in fibroblasts (PICP, collagen measuring kit); type: cell-based; settings: 72 hours; for Amount of PICP produced in fibroblasts (average ± SEM): non-treated control 47.1 ± 9.7
Protocol: The following experiment was performed by using fibroblasts in order to evaluate the effect of sphingosine kinase activator upon collagen synthesis.
Each of K6PC4, K6PC-5, K6PC-7 and K6PC-9 was dissolved in DMSO at a concentration of 0.3 and 1.0 μg/ml. The solutions were used as samples and analyzed for collagen synthesis after incubation for 72 hours. 72 hours after the treatment of the sample, culture solution was discarded, cells were washed with serum-free DMEM three times, and cells were cultured again by using flesh serum-free DMEM. After incubation, supernatant in each well was combined and analyzed for the amount of PICP (procollagen type I C-peptide) by using a collagen measuring kit. The standard solution contained in the collagen measuring kit was diluted with a sample and absorption at 450 nm was measured to construct a standard concentration curve (see the following Table 2).
To an antibody-coated microtiter plate comprising a primary collagen antibody applied unifomrily thereto, 100 μl of an antibody-POD conjugate solution and the cell supernatant collected as described above were added, followed by incubation at 37° C. for 3 hours, to induce an antigen-antibody reaction. Then, the reaction mixture was subjected to washing and color developing. After the reaction, the reaction mixture developed a yellow color, wherein the yellowness depended on reaction degrees. Also, 96 well plates developing a yellow color were determined at 450 nm by using a microtiter plate reader.

hairless mouse = experiment: Recovery of calcium gradient on epidermis, acute disruption model by tape stripping; type: in vivo; settings: 1.0% in PEG:EtOH=7:3, after tape stripping, compared to control
Protocol: To determine the effect of recovering skin barrier effects obtained by the compound according to the present invention, the compound was evaluated for the effect of recovering a calcium ion gradient in the epidermis.
The calcium gradient in the epidermis plays very important role in maintaining homoeostasis of the skin barrier function. For example, when a hairless mouse is subjected to acute disruption on its back by tape stripping, the calcium ion gradient in the epidermis is lost. Therefore, it is possible to evaluate the effect of a test sample upon recovery of a damaged skin barrier by observing recovery of the calcium gradient loss in an acute disruption model.
In the following test, K6PC-5 according to the present invention was evaluated for the effect upon variations in calcium gradient in an acute disruption model.
Tissues non-treated with the sample were provided as control, and tissues were collected right after the tape striping, and 3, 6 and 24 hours after the tape stripping. Then, the tissues treated with K6PC-5 (1.0% in PEG:EtOH=7:3) were compared with controls, which are treated by calcium ion capture cell chemical dyeing. More particularly, each freshly collected tissue sample was fixed with a fixing solution comprising 2% glutaraldehyde, 2% formaldehyde, 90 mM potassium oxalate and 1.4% sucrose and refrigerated at 4° C. […]

SD rat = experiment: Inhibition of wrinkles and skin aging, UV-induced wrinkle model; type: in vivo
Protocol: Generally, continuous exposure to UV causes wrinkles and side effects such as sun burn and skin irritation, resulting in stimulation of skin aging.
To perform the evaluation, an SD rat with three wrinkles is irradiated with UVB under an intensity of 130 mJ/cm^2 at its rear leg […] for 6 weeks. Then, 10 μl (1% in 80% EtOH) of K6PC-5 was applied to the skin of rear leg right after each time of UV irradiation, UV irradiation being performed 5 times per week during 6 weeks from the start day of the UV irradiation. Nine weeks after the treatment, the rat was anesthetized with albutin and the wrinkles were photographed. Additionally, wrinkle-forming portions were replicated by using an exafine hydrophilic vinyl polysiloxane impression material. The replicated images were analyzed quantitively for shadow images by using an image analyzer.

Q: How did the “Amount of PICP produced in fibroblasts (average ± SEM)” value (fibroblasts; 0.3 μg/ml) turn out when `CCCCCCCC(=O)C(CCCCCC)C(=O)NC(CO)CO` (stereo not drawn) [K6PC-5, N-(1,3-dihydroxyisopropyl)-2-hexyl-3-oxo-decanamide] was run?
A: Its value is 111.2 ± 3.9.

Q: And the “Amount of PICP produced in fibroblasts (average ± SEM)” value (fibroblasts; 1.0 μg/ml)?
A: Its value is 96.0 ± 5.6.

Q: And the “collagen synthesis increase as compared to the non-treated control” value (fibroblasts; fibroblasts, 0.3 or 1.0 μg/ml (concentration not given))?
A: Its value is “about 2.4 times”.

Q: What about the “recovery of calcium gradient in the epidermis” value (hairless mouse) of the same molecule?
A: Its value is “began to be recovered, from 3 hours after the treatment, to form the normal calcium gradient rapidly”.

Q: And the “inhibition of wrinkles compared to vehicle control” value (SD rat; 10 μl of 1% in 80% EtOH after each UVB irradiation (130 mJ/cm^2), 6 weeks, replica image analysis)?
A: Its value is “about 63%”.

Q: What about the “erythema caused by UV compared to vehicle control” value (SD rat; 10 μl of 1% in 80% EtOH after each UVB irradiation, skin photograph FIG. 4b) of the same molecule?
A: The value was “decrease in erythema”.

— patent publication US20060094790A1, “Use of sphingosine kinase activator as skin disease treating agent and method for treating skin diseases using the same” (priority 2004, published 2006)
